# Assay results from patent US20240190868A1, “SOS1 INHIBITORS” (Acerand Therapeutics (USA) Limited, priority 2022, published 2024).
# pIC50: −log10 of the molar value. Where a name gives a salt, the structure may show the parent alone.
# Tested on: cellular pERK in NCI-H1975 cells (EGFR/L858R-T790M)
# Test: pERK potency assay (In Cell ELISA)
# Format: cell-based
# Details: Homo sapiens, 1 h compound incubation
# Excerpt: The assay measures the ability of a compound to inhibit SOS1 function in cells. SOS1 activates RAS proteins by catalyzing the conversion of RAS GDP to RAS GTP in response to receptor tyrosine kinase activation. Activation of RAS induces a sequence of cellular signaling events that result in increased phosphorylation of ERK at Threonine 202 and Tyrosine 204 (pERK). The procedure (i.e., In Cell ELISA as described below) measures the level of cellular pERK in response to a test compound in NCI-H1975 cells (EGFR/L858R-T790M).
# First, NCI-H1975 cells were grown and maintained using media and procedures recommended by the ATCC. A day before compound addition, cells were plated in poly-D-lysine coated 96-well cell culture plates (Corning® BioCoat® Cat #356640) at 25000 cells/well/100 μL and grown overnight in an incubator at 37° C. with 5% CO2. A solution of a test compound was prepared with 3-fold serial dilutions in DMSO having a top concentration of 6 mM. On the day of the assay, 50 μL of a test compound dilution in media was added to each well of cell culture plate with a final compound concentration in the range of 0.001 μM to 20 μM. After addition of the compound, cells were incubated for 1 h at 37° C. with 5% CO2, after which the culture medium was removed. Cells were fixed with 4% formaldehyde in phosphate-buffered saline (PBS) and incubated at RT for 20 min. The plate was washed three times with PBST (PBS with 0.05% Tween®-20), followed by incubation with 100 μL of pre-cooled methanol at −20° C. for 20 min. After incubation, methanol was removed. The plate was again washed with PBST. Cells were then permeabilized with 100 μL/well of 0.1% Triton X-100 in PBS at RT for 20 min and then quenched with a quenching buffer (PBST containing 1% H2O2 and 0.1% sodium azide) for 20 min at RT with gentle shaking. After washing once with PBST, a blocking buffer (250 uL/well, Pierce™ Protein-Free-PBS Blocking Buffer, Cat #37572) was then added to the cells for 1-h incubation at RT, followed by an anti-pERK antibody (cell signaling, 1:1000 dilution in 5% BSA in PBST) incubation overnight at 4° C. and a secondary antibody-HRP (Jackson immunoresearch, 1:3000 dilution in 5% BSA in PBST) incubation at RT for 1 h. PBST wash was carried out after each step three times. Before the addition of a substrate (Advansta ELISABright™), the plate was washed with PBS twice to remove detergent residues. The Cellular pERK level was determined using the microplate reader (Biotek Synergy™ H1) to detect the chemiluminescence signal. IC50 was determined by fitting a 4-parameter sigmoidal concentration-response model.
row,SMILES,pIC50
1,"COc1nc(C2(O)CC(C)(C)N(C(C)=O)C(C)(C)C2)cc2/c(=N/[C@H](C)c3cccc(C(F)(F)F)c3C)ncn(C)c12 [Compound 24, (R,Z)-1-(4-hydroxy-4-(8-methoxy-1-methyl-4-((1-(2-methyl-3-(trifluoromethyl)phenyl)ethyl)imino)-1,4-dihydropyrido[3,4-d]pyrimidin-6-yl)-2,2,6,6-tetramethylpiperidin-1-yl)ethan-1-one]",> 7.00
2,CC(=O)N1CC=C(c2cc3/c(=N/[C@H](C)c4cccc(C#N)c4C)nc4n(c3cn2)CCO4)CC1 [Compound 34],> 7.00
3,"Cc1c([C@@H](C)/N=c2\nc(C)n(C)c3cnc(C4=CCN(C(N)=O)CC4)cc23)cccc1C(F)(F)F [Compound 43, (R,Z)-4-(1,2-dimethyl-4-((1-(2-methyl-3-(trifluoromethyl)phenyl)ethyl)imino)-1,4-dihydropyrido[3,4-d]pyrimidin-6-yl)-3,6-dihydropyridine-1(2H)-carboxamide]",> 7.00
4,CC(=O)N1CCC(F)(c2cc3/c(=N/[C@H](C)c4cccc(C#N)c4C)nc4n(c3cn2)CCO4)CC1 [Compound 35],> 7.00
5,CC(=O)N1CCN(c2cnc3c(c2)/c(=N/[C@H](C)c2cccc(C(F)(F)F)c2C)nc(C)n3C)CC1 [Compound 53],> 7.00
6,"Cc1n/c(=N\[C@H](C)c2cccc(C(F)F)c2F)c2cc(C3=CCN(S(C)(=O)=O)CC3)ncc2n1C [Compound 97, (R,Z)—N-(1-(3-(difluoromethyl)-2-fluorophenyl)ethyl)-1,2-dimethyl-6-(1-(methylsulfonyl)-1,2,3,6-tetrahydropyridin-4-yl)pyrido[3,4-d]pyrimidin-4(1H)-imine]",> 7.00
7,"CC(=O)N1CCC(F)(c2cc3/c(=N/[C@H](C)c4cccc(C(F)(F)F)c4C)nc(C)n(C)c3cn2)CC1 [Compound 1, (R,Z)-1-(4-(1,2-dimethyl-4-((1-(2-methyl-3-(trifluoromethyl)phenyl)ethyl)imino)-1,4-dihydropyrido[3,4-d]pyrimidin-6-yl)-4-fluoropiperidin-1-yl)ethan-1-one]",> 7.00
8,"Cc1c(C#N)cccc1[C@@H](C)/N=c1\nc(C)n(C)c2cnc(N3CCOCC3)cc12 [Compound 54, (R,Z)-3-(1-((1,2-dimethyl-6-morpholinopyrido[3,4-d]pyrimidin-4(1H)-ylidene)amino)ethyl)-2-methylbenzonitrile]",> 7.00
9,CC(=O)N1CCC(O)(c2cc3/c(=N/[C@H](C)c4cccc(C(F)F)c4F)nc4n(c3cn2)CCC4)CC1 [Compound 28],> 7.00
10,Cc1c(C#N)cccc1[C@@H](C)/N=c1\nc(C)n(C)c2cnc(N3CCCC3)cc12 [Compound 57],> 7.00
11,"CC(=O)N1CCN(C(=O)c2cc3/c(=N/[C@H](C)c4cccc(C(F)F)c4F)nc(C)n(C)c3cn2)CC1 [Compound 89, (R,Z)-1-(4-(4-((1-(3-(difluoromethyl)-2-fluorophenyl)ethyl)imino)-1,2-dimethyl-1,4-dihydropyrido[3,4-d]pyrimidine-6-carbonyl)piperazin-1-yl)ethan-1-one]",> 7.00
12,"CC(=O)N1CC=C(c2cc3/c(=N/[C@H](C)c4cccc(C(F)(F)F)c4C)nc4n(c3cn2)CCC4)CC1 [Compound 25, (R,Z)-1-(4-(5-((1-(2-methyl-3-(trifluoromethyl)phenyl)ethyl)imino)-5,7,8,9-tetrahydropyrido[4,3-e]pyrrolo[1,2-a]pyrimidin-3-yl)-3,6-dihydropyridin-1(2H)-yl)ethan-1-one]",> 7.00
13,"CC(=O)N1CCC(F)(c2cc3/c(=N/[C@H](C)c4cccc(C(F)(F)F)c4C)ncn(C)c3cn2)CC1 [Compound 15, (R,Z)-1-(4-fluoro-4-(1-methyl-4-((1-(2-methyl-3-(trifluoromethyl)phenyl)-ethyl)imino)-1,4-dihydropyrido[3,4-d]pyrimidin-6-yl)piperidin-1-yl)ethan-1-one hydrochloride]",> 7.00
